Laboratory results: patent US10758534B2 (Vertex Pharmaceuticals Incorporated, priority 2014, dated 2020)

Target: T1, F508del (Homo sapiens, UniProt P13569, DEL508-508)
T1 construct: expressed in transfected cells
Assay: Protocol 1: membrane potential optical assay (FLIPR III, voltage sensing dye), identification of potentiator compounds
Assay type: cell-based
Details: Table 3, compounds of Table 1
Summary of the method: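 NIH3T3 F508del cells, 27° C × 24 hrs; compound/DMSO pretreat → redistribution dye load → single forskolin addition with Cl⁻ gradient (gluconate-substituted bath, HEPES pH 7.4). FLIPR III membrane-potential fluorescence read.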

T1 sequence (P13569 with tags, fused parts or gaps DEL508-508): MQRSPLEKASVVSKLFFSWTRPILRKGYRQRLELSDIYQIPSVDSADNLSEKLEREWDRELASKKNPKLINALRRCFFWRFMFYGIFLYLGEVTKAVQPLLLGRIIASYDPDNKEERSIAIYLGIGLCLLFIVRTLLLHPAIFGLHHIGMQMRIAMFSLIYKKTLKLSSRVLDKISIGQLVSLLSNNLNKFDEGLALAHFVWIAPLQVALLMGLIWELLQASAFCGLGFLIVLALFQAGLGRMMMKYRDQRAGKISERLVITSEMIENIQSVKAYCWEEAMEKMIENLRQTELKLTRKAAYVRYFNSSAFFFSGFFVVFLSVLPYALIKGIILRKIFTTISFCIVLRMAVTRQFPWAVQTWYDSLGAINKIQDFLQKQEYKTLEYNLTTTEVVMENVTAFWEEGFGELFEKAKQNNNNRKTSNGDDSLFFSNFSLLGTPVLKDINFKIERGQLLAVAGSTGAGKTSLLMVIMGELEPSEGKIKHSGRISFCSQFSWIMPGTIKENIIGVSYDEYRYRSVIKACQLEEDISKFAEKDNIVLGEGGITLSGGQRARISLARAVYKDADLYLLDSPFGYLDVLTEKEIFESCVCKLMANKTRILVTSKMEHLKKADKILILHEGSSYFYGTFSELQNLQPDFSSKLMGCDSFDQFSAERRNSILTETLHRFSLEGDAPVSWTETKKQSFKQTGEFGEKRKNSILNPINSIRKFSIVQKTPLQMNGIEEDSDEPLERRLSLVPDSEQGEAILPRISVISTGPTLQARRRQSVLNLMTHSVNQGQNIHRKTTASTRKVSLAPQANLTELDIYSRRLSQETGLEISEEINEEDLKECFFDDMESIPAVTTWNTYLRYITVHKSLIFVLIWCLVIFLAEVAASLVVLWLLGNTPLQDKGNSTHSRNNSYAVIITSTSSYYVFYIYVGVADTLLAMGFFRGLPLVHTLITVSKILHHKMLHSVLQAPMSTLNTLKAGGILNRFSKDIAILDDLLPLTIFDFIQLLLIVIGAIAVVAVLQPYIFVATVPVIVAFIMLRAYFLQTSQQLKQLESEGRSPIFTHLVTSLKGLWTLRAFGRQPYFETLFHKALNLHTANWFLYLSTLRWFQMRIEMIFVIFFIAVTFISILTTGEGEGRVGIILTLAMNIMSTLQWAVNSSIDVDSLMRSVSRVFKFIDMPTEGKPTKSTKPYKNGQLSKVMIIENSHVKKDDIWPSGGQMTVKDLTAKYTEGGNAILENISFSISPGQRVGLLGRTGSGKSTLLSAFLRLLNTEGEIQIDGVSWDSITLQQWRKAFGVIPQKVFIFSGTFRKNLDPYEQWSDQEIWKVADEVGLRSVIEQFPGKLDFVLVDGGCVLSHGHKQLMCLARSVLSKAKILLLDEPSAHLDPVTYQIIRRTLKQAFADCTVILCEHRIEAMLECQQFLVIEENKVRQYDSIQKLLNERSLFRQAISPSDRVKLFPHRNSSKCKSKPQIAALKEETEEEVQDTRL

| SMILES | EC30 |
| --- | --- |
| COCC1CCCN(c2nc(-c3cc(F)cc(OCC(C)C)c3)ccc2C(=O)NS(=O)(=O)c2ccn[nH]2)C1 (stereo not shown) [Compound 1028, 6-(3-fluoro-5-isobutoxy-phenyl)-2-[3-(methoxymethyl)-1-piperidyl]-N-(1H-pyrazol-5-ylsulfonyl)pyridine-3-carboxamide] | ++ (“++” means between 3 uM and 10 uM) |
| CC1CN(c2ncc(/C=C/C3CC3)cc2C(=O)NS(=O)(=O)c2cccc(N)n2)C(C)(C)C1 (stereo not shown) [Compound 1571, N-[(6-amino-2-pyridyl)sulfonyl]-5-[(E)-2-cyclopropylvinyl]-2-(2,2,4-trimethylpyrrolidin-1-yl)pyridine-3-carboxamide] | +++ (“+++” means <3 uM) |
| Cc1ccc(-c2nc(C(C)(C)C)ccc2C(=O)NS(=O)(=O)c2ccc(C)cn2)cc1 [Compound 1355, 6-tert-butyl-N-[(5-methyl-2-pyridyl)sulfonyl]-2-(p-tolyl)pyridine-3-carboxamide] | ++ (“++” means between 3 uM and 10 uM) |
| CC(C)COc1cc(F)cc(-c2ccc(C(=O)NS(=O)(=O)c3cccc(N)n3)c(N3CCC3C)n2)c1 (stereo not shown) [Compound 1840, N-[(6-amino-2-pyridyl)sulfonyl]-6-(3-fluoro-5-isobutoxy-phenyl)-2-(2-methylazetidin-1-yl)pyridine-3-carboxamide] | +++ (“+++” means <3 uM) |
| C[C@@H]1CN(c2nc(C3=CCOCC3)ccc2C(=O)NS(=O)(=O)c2cccc(N)n2)C(C)(C)C1 [Compound 1594, N-[(6-amino-2-pyridyl)sulfonyl]-6-(3,6-dihydro-2H-pyran-4-yl)-2-[(4S)-2,2,4-trimethylpyrrolidin-1-yl]pyridine-3-carboxamide] | +++ (“+++” means <3 uM) |
| CC(C)Oc1ccc(-c2ccc(C(=O)NS(=O)(=O)c3ccn[nH]3)c(N3[C@H](C)CC[C@@H]3C)n2)cn1 [Compound 1074, 2-[(2S,5R)-2,5-dimethylpyrrolidin-1-yl]-6-(6-isopropoxy-3-pyridyl)-N-(1H-pyrazol-5-ylsulfonyl)pyridine-3-carboxamide] | ++ (“++” means between 3 uM and 10 uM) |
| COc1ccc(-c2cnc(N3CC(C)CC3(C)C)c(C(=O)NS(=O)(=O)c3cccc(N)n3)c2)cn1 (stereo not shown) [Compound 1886, N-[(6-amino-2-pyridyl)sulfonyl]-5-(6-methoxy-3-pyridyl)-2-(2,2,4-trimethylpyrrolidin-1-yl)pyridine-3-carboxamide] | ++ (“++” means between 3 uM and 10 uM) |
| CCCOc1cc(-c2ccc(C(=O)NS(=O)(=O)c3ccn[nH]3)c(N3[C@H](C)CC[C@@H]3C)n2)ccc1Cl [Compound 832, 6-(4-chloro-3-propoxy-phenyl)-2-[(2R,5S)-2,5-dimethylpyrrolidin-1-yl]-N-(1H-pyrazol-5-ylsulfonyl)pyridine-3-carboxamide] | +++ (“+++” means <3 uM) |
| CC(C)COc1cc(-c2ccc(C(=O)NS(=O)(=O)c3cccc(N)n3)c(N3C[C@@H](C)CC3(C)C)n2)ccn1 [Compound 1618, N-[(6-amino-2-pyridyl)sulfonyl]-6-(2-isobutoxy-4-pyridyl)-2-[(4S)-2,2,4-trimethylpyrrolidin-1-yl]pyridine-3-carboxamide] | +++ (“+++” means <3 uM) |
| Cc1cc(C)c(Oc2nc(C3=CC(=O)CC(C)(C)C3)ccc2C(=O)NS(=O)(=O)c2cccc(N)n2)c(C)c1 [Compound 1528, N-[(6-amino-2-pyridyl)sulfonyl]-6-(5,5-dimethyl-3-oxo-cyclohexen-1-yl)-2-(2,4,6-trimethylphenoxy)pyridine-3-carboxamide] | ++ (“++” means between 3 uM and 10 uM) |
| Cc1cc(C)c(Oc2nc(C3CC(C)(C)CCC3=O)ccc2C(=O)NS(=O)(=O)c2cccc(N)n2)c(C)c1 (stereo not shown) [Compound 1427, N-[(6-amino-2-pyridyl)sulfonyl]-6-(5,5-dimethyl-2-oxo-cyclohexyl)-2-(2,4,6-trimethylphenoxy)pyridine-3-carboxamide] | +++ (“+++” means <3 uM) |
| CC(C)COc1cc(F)cc(-c2ccc(C(=O)NS(=O)(=O)c3ccn[nH]3)c(N3CCC[C@@H]3c3ccccc3)n2)c1 [Compound 1060, 6-(3-fluoro-5-isobutoxy-phenyl)-2-[(2R)-2-phenylpyrrolidin-1-yl]-N-(1H-pyrazol-5-ylsulfonyl)pyridine-3-carboxamide] | +++ (“+++” means <3 uM) |
| CC(C)COc1cc(F)cc(-c2ccc(C(=O)NS(=O)(=O)c3ccccn3)c(N3C[C@@H](C)CC3(C)C)n2)c1 [Compound 1832, 6-(3-fluoro-5-isobutoxy-phenyl)-N-(2-pyridylsulfonyl)-2-[(4S)-2,2,4-trimethylpyrrolidin-1-yl]pyridine-3-carboxamide] | +++ (“+++” means <3 uM) |
| Cc1ccc(-c2nc(-c3cc(F)cc(OC(C)C)c3)ccc2C(=O)NS(=O)(=O)c2ccn[nH]2)cc1 [Compound 849, 6-(3-fluoro-5-isopropoxy-phenyl)-2-(p-tolyl)-N-(1H-pyrazol-5-ylsulfonyl)pyridine-3-carboxamide] | + (“+” means greater than 10 uM) |
| CCOc1cccc2c1CN(Cc1c(C)cc(C)cc1C)C2(C)C(=O)NS(=O)(=O)c1nccs1 (stereo not shown) [Compound 1546, 4-ethoxy-1-methyl-N-thiazol-2-ylsulfonyl-2-[(2,4,6-trimethylphenyl)methyl]isoindoline-1-carboxamide] | +++ (“+++” means <3 uM) |
| COc1ccc(-c2ccc(C(=O)NS(=O)(=O)c3ccc[nH]c3=O)c(N3C[C@@H](C)CC3(C)C)n2)c(F)c1 [Compound 1858, 6-(2-fluoro-4-methoxy-phenyl)-N-[(2-oxo-1H-pyridin-3-yl)sulfonyl]-2-[(4S)-2,2,4-trimethylpyrrolidin-1-yl]pyridine-3-carboxamide] | ++ (“++” means between 3 uM and 10 uM) |
| Cc1cc(OCCOC(C)C)nc(-c2ccc(C(=O)NS(=O)(=O)c3cccc(N)n3)c(N3C[C@@H](C)CC3(C)C)n2)c1 [Compound 1703, N-[(6-amino-2-pyridyl)sulfonyl]-6-[6-(2-isopropoxyethoxy)-4-methyl-2-pyridyl]-2-[(4S)-2,2,4-trimethylpyrrolidin-1-yl]pyridine-3-carboxamide] | +++ (“+++” means <3 uM) |
| Cc1cc(C)c(Oc2nc(-c3ccc(O)cc3)ccc2C(=O)NS(=O)(=O)c2cccc(N)n2)c(C)c1 [Compound 1344, N-[(6-amino-2-pyridyl)sulfo]-6-(4-hydroxyphenyl)-2-(2,4,6-trimethylphenoxy)pyridine-3-carboxamide] | ++ (“++” means between 3 uM and 10 uM) |
| Cc1cc(C)c(Oc2nc(C(C)(C)C)ccc2C(=O)NS(=O)(=O)c2c(C)cc[nH]c2=O)c(C)c1 [Compound 1311, 6-tert-butyl-N-[(4-methyl-2-oxo-1H-pyridin-3-yl)sulfonyl]-2-(2,4,6-trimethylphenoxy)pyridine-3-carboxamide] | +++ (“+++” means <3 uM) |
| CCOc1cccc2c1CN(Cc1c(C)cc(C)cc1C)C2(C)C(=O)NS(=O)(=O)c1cccc(C(F)F)n1 (stereo not shown) [Compound 1597, N-[[6-(difluoromethyl)-2-pyridyl]sulfonyl]-4-ethoxy-1-methyl-2-[(2,4,6-trimethylphenyl)methyl]isoindoline-1-carboxamide] | +++ (“+++” means <3 uM) |
| Cc1cc(C)c(Cn2nc(C(C)(C)C)cc2C(=O)NS(=O)(=O)c2cccnc2N)c(C)c1 [Compound 1106, N-[(2-amino-3-pyridyl)sulfonyl]-5-tert-butyl-2-[(2,4,6-trimethylphenyl)methyl]pyrazole-3-carboxamide] | + (“+” means greater than 10 uM) |
| Cc1cc(C)c(Oc2nc(C3=CCN(C(=O)OC(C)C)CC3)ccc2C(=O)NS(=O)(=O)c2cccc(N)n2)c(C)c1 [Compound 1366, isopropyl 4-[5-[(6-amino-2-pyridyl)sulfonylcarbamoyl]-6-(2,4,6-trimethylphenoxy)-2-pyridyl]-3,6-dihydro-2H-pyridine-1-carboxylate] | +++ (“+++” means <3 uM) |
| CC(C)c1ccc(-c2ccc(C(=O)NS(=O)(=O)c3cccc(N)n3)c(N3C[C@H](C)CC3(C)C)n2)cc1 [Compound 890, N-[(6-amino-2-pyridyl)sulfonyl]-6-(4-isopropylphenyl)-2-[(4R)-2,2,4-trimethylpyrrolidin-1-yl]pyridine-3-carboxamide] | +++ (“+++” means <3 uM) |
| CC(C)COc1cc(F)cc(-c2ccc(C(=O)NS(=O)(=O)c3ccn[nH]3)c(N3CCC(C)(C)CC3)n2)c1 [Compound 1110, 2-(4,4-dimethyl-1-piperidyl)-6-(3-fluoro-5-isobutoxy-phenyl)-N-(1H-pyrazol-5-ylsulfonyl)pyridine-3-carboxamide] | +++ (“+++” means <3 uM) |
| CC1CN(c2nc(C(C)(C)C)c(C3=CCCC4(C3)OCCO4)cc2C(=O)NS(=O)(=O)c2cccc(N)n2)C(C)(C)C1 (stereo not shown) [Compound 1469, N-[(6-amino-2-pyridyl)sulfonyl]-6-tert-butyl-5-(1,4-dioxaspiro[4.5]dec-8-en-9-yl)-2-(2,2,4-trimethylpyrrolidin-1-yl)pyridine-3-carboxamide] | ++ (“++” means between 3 uM and 10 uM) |
| CC(C)Oc1ccc(-c2ccc(C(=O)NS(=O)(=O)c3cccc(N)n3)c(N3CCCC3Cc3ccccc3)n2)cn1 (stereo not shown) [Compound 994, N-[(6-amino-2-pyridyl)sulfonyl]-2-(2-benzylpyrrolidin-1-yl)-6-(6-isopropoxy-3-pyridyl)pyridine-3-carboxamide] | +++ (“+++” means <3 uM) |
| CCOc1cccc2c1CN(Cc1c(C)cc(C)cc1C)C2(C)C(=O)NS(=O)(=O)c1ccc(CC)c(N)c1 (stereo not shown) [Compound 1584, N-(3-amino-4-ethyl-phenyl)sulfonyl-4-ethoxy-1-methyl-2-[(2,4,6-trimethylphenyl)methyl]isoindoline-1-carboxamide] | +++ (“+++” means <3 uM) |
| CCC(CC)Oc1ccc(-c2ccc(C(=O)NS(=O)(=O)c3cccc(N)n3)c(N3CC(C)CC3(C)C)n2)cn1 (stereo not shown) [Compound 1076, N-[(6-amino-2-pyridyl)sulfonyl]-6-[6-(1-ethylpropoxy)-3-pyridyl]-2-(2,2,4-trimethylpyrrolidin-1-yl)pyridine-3-carboxamide] | +++ (“+++” means <3 uM) |
